This note sets out measurements from patent US20080119492A1, “Compositions and methods for treating cancer and other diseases characterized by abnormal cell proliferation” (priority 2005, published 2008).

The test system of experiment [1] is GBM cell lines SF 763 and SF 767. Briefly: Short-term (3 days) cell viability. The class given is cell-based, human. Particulars: 0.5, 1 and 2 μM.
Experiment [2] deals with SF 767 cells. Briefly: Clonogenic survival, ThAcr2 combined with X-rays. The settings on record: 0.5 μM ThAcr2 for 14 days, replated, 2-Gy X-rays, corrected for ThAcr2 alone. The class given is cell-based, human. As to the method:
(§1) To explore the effect of ThAcr2 in combination with ionizing radiation on GBM cells, clonogenic survival of SF 763 and SF 767 cells was analyzed. Although both cell lines were radio-resistant, the surviving fraction after 2 Gy was greater in SF 763 (80%) than in SF 767 cells (56%), indicating stronger resistance of SF 763 cells to radiation.
(§2) For combination experiments, non-toxic sub-apoptotic ThAcr2 concentrations of 0.5 and 1 μM were utilized. […] SF 763 cells were treated with […] ThAcr2 for 7 days, then replated and irradiated with a 3 Gy-dose of X-rays. SF 767 cells were treated with 0.5 μM ThAcr2 for 14 days, then replated and irradiated with a 2-Gy dose. […] The combination of ThAcr2 with radiation was additive when the ThAcr2 treatment started after irradiation.

Experiment [3] concerns SF 763 cells. Briefly: Clonogenic survival, ThAcr2 combined with X-rays. The class given is cell-based, human. Particulars: 1 μM ThAcr2 for 7 days, replated, 3 Gy X-rays, corrected for ThAcr2 alone. As to the method: as §1, §2
Experiment [4] relates to SF 763 cell. Description: Cytogenetic analysis of telomere fusions. Format: cell-based, human. Here is the method: The fusion frequency was 0.3 in untreated cells and 1.6 in ThAcr2-treated cells.
(§3) The effects of 1 μM ThAcr2 on telomere and telomerase after 7 and 14 days of treatment were evaluated.

The test system of experiment [5] is SF 767 cells. Briefly: Growth of GBM cells in continuous 14-day culture with ThAcr2. The class given is cell-based, human. The settings on record: 0.5, 1 and 2 μM ThAcr2, continuous 14 days. Here is the method:
(§4) GBM cells were maintained in culture for 14 days in the presence of 0.5, 1 and 2 μM ThAcr2.

In experiment [6] the test system is SF 763 cells. The experiment is described as above. The class given is cell-based, human. The settings on record: 0.5, 1 and 2 μM ThAcr2, continuous 14 days, more pronounced effect on SF 763. Here is the method: as §4
For experiment [7], the system named is telomere and telomerase (hTERT) in GBM cell lines SF 763 and SF 767. Briefly: Effects on telomere and telomerase (telomere length, hTERT expression by real-time RT-PCR). The class given is cell-based, human. Particulars: 1 μM ThAcr2, 7 and 14 days. Here is the method: as §3
(Quantitative PCR measures a nucleic acid by following its amplification.)

For experiment [8], the system named is GBM tumor cells. Briefly: Clonogenic survival, ThAcr2 combined with radiation, schedule of combination. Format: cell-based, human. As to the method: as §1, §2
The subject of experiment [9] is SF 767 cells. Description: Long-term (50 days) treatment with ThAcr2. The class given is cell-based, human. The settings on record: 1 μM ThAcr2 for 50 days, from day 30. As to the method: (§5) To further investigate the tumor-growth inhibition effect of ThAcr2 as a single agent, the GBM cells were exposed to 1 μM ThAcr2 for 50 days.
Experiment [10] relates to SF 763 cells. Briefly: Long-term (50 days) treatment with ThAcr2. The settings on record: from day 30. Format: cell-based, human. As to the method: as §5
Experiment [11] concerns model guanine quadruplexes inspired from human telomeres. Description: Affinity for guanine quadruplexes. The class given is binding. Particulars: 1:2 mixture of mono- and di-cation species. The text has this: U-shaped molecules holding two potentially intercalating units 7 Å apart have been designed to have a moderate affinity for duplex DNA on the basis of the nearest neighbor exclusion principle but may display strong binding affinity for other architectures such as guanine quadruplexes.

Experiment [12] deals with glioblastoma cells. Briefly: Administration of compositions comprising ThAcr2 to glioblastoma cells. The class given is cell-based.
The subject of experiment [13] is GBM cells. Description: Flow cytometry of cell cycle distribution and apoptosis (annexin-propidium iodide). Format: cell-based, human. Particulars: 7 days. Here is the method: Using flow cytometry, cell cycle distribution and apoptosis in cells treated for 7 days with 0.5-2 μM ThAcr2 were examined. […] The percentage of cells in the G2/M phase increased from 10% to 20%. The annexin-propidium iodide (apoptotic) fraction was essentially identical (9-11%) in control and treated cells at lower ThAcr2 concentrations ([…]) but increased to 34% in cells treated with 2 μM ThAcr2.
Background: Flow cytometry measures light scatter and fluorescence of single cells or particles in a stream.

Turning to “4,6-bis-(6-(10-N-methylacrid-9-ylinium)pyridin-2-yl)-pyrimidine bistriflate [ThAcr2]”, the short-term cell viability result in experiment [1] is reported as “non-toxic”. In addition, the “reduction of surviving fraction of tumor cells” value in [2] was 2.3 fold; in [3], 2.5 fold. Further, the “telomere fusions (cytogenetic analysis)” value in [4] (1 μM ThAcr2, day 7) is “multiple telomere fusions”. In addition, the telomere fusion frequency in experiment [4] (SF 763 metaphase, FIG. 3, untreated cells 0.3) turned out to be 1.6. For the same substance, the tumor cell growth result in [5] and in [6] was “inhibited tumor cell growth” throughout. In [7], the telomere length result is given as “did not reduce telomere length”. Moreover, the “clonogenic survival with combination therapy versus radiation alone” value in experiment [8] (FIG. 4, P<0.001) was “markedly decreased”. Also, the “combination of ThAcr2 with radiation” value in [8] (ThAcr2 treatment started after irradiation) is given as “additive”; in experiment [8] (cells continuously treated before and after irradiation) it was “supra-additive or had a synergistic effect”. Besides, the “rate of cell proliferation after long-term treatment” value in experiment [9] and in [10] (1 μM ThAcr2 for 50 days) was “increase in the rate of cell proliferation” throughout. In [10] (1 μM ThAcr2 long-term), the overexpression of telomerase result is “up to 7 fold”. Besides, the “affinity for model guanine quadruplexes” value in experiment [11] is listed as “strong affinity”. Also, in [12], the “glioblastoma cells after administration” value is reported as “reduction of glioblastoma cells”. The “annexin-propidium iodide (apoptotic) fraction” value was 34% in [13] (2 μM ThAcr2); 9-11% in [13] (lower ThAcr2 concentrations (0.5 and 1 μM), identical in control). The “percentage of cells in the G2/M phase” value in [13] (0.5-2 μM ThAcr2, untreated 10%) is on record as 20%.
